Holding throughout (assay): inhibition of tumour cell growth, NCI panel, 48 h
Assay [1] deals with SNB-75 CNS.
The test system of assay [2] is NCI-H226 lung.
The subject of assay [3] is MCF7 breast.
In assay [4] the test system is M14 melanoma.
For assay [5], the system named is RPMI-8226 leukemia.
In assay [6] the test system is HCC-2998 colon.
Assay [7] concerns SK-MEL-2 melanoma.
Assay [8] deals with LOX IMVI melanoma.
The subject of assay [9] is IGROV1 ovarian.
Assay [10] has as its system NCI-H23 lung.

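Test compounds were applied to cells in 96-well plates for 48 hours at 5 doses. Abbreviation: GI50, concentration required for 50% inhibition of growth. At the TGI there is no net growth.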 Where only a bound is given, the exact number is not on record here.

With `O=c1[nH]nc(Nc2ccc(Cl)cc2)c2nnn(C3CCCCC3)c12`, the TGI in assay [1], in assay [2], in assay [3], in assay [4], in [5] and in assay [6] was > 100 µM in each case. The TGI was > 100 µM in assay [7], 43.3 µM in [8], > 100 µM in assay [9] and > 100 µM in [10].
Turning to `O=c1c2[nH]cnc2n(-c2ccccc2)c(=S)n1-c1ccccc1`, the TGI in assay [1], in [2], in assay [3], in [4], in [5] and in assay [6] was > 100 µM each time. Further, the TGI in assay [7], in assay [8], in assay [9] and in assay [10] was > 100 µM throughout.
Turning to `O=[N+]([O-])/C=C/c1cc(Cl)c(/C=C/[N+](=O)[O-])cc1Cl`, the TGI in assay [1] was 29.6 µM; in [2], 5.4 µM; in [3], > 33.2 µM; in assay [4], 4.37 µM; in [5] it was 3.99 µM; in assay [6] it was 3.99 µM. Moreover, the TGI in [7] turned out to be 12.8 µM; in assay [8] it was 2.99 µM; in [9], 8.62 µM; in assay [10] it was 22.5 µM.
On to `OCCN1CCN(c2nc(N3CCCC3)c3nc(Cl)c(NCc4ccccc4)nc3n2)CC1`, for which the TGI was found to be 8.67 µM in assay [1]; 37.8 µM in assay [2]; 17.2 µM in assay [3]; 7.24 µM in [4]; 8.35 µM in [5]; 3.56 µM in assay [6]. Further, the TGI in assay [7] was 16.8 µM; in assay [8], 10.6 µM; in assay [9], 23.1 µM; in assay [10], 29.4 µM.
Regarding `CC(=O)Oc1cc2c(cc1OCC(F)(F)F)[C@H]1CC[C@]3(C)[C@@H](OC(C)=O)CC[C@H]3[C@@H]1CC2=O`, the TGI is 52.3 µM in assay [1]; > 100 µM in [2]; > 75.6 µM in assay [3]; > 78.6 µM in assay [4]; 68.8 µM in [5]; 67.3 µM in assay [6]. For the same molecule, the TGI in assay [7] was 44.7 µM; in assay [8], > 78 µM; in assay [9] it was > 66.8 µM; in assay [10], > 68.8 µM.
`N#Cc1cc(F)cc(Oc2ccc(S(=O)(=O)C(F)F)c3c2CC(F)(F)[C@H]3O)c1`: the GI50 in [1] was 12.6 µM; in [2], 31.3 µM; in [3], 25.7 µM; in assay [4], 30.1 µM; in assay [5] it was 19.2 µM; in [6] it was 48 µM. The GI50 is 16.4 µM in [7], 35 µM in assay [8], 37.4 µM in assay [9] and 27.6 µM in [10]. Moreover, the TGI in [1] was 67.3 µM; in assay [2], > 100 µM; in assay [3], > 100 µM; in assay [4], > 100 µM; in [5], 96.4 µM; in assay [6] it was > 100 µM. Moreover, the TGI in assay [7] was 59.8 µM; in assay [8], > 100 µM; in assay [9], > 100 µM; in assay [10] it was > 100 µM.
Turning to `O=C(Nc1ccc(-n2cc(-c3ccncc3)c(-c3ccc(O)c(Cl)c3)n2)cc1)Nc1cc(C(F)(F)F)cc(C(F)(F)F)c1`, the GI50 in assay [1] is 2.07 µM; in assay [2], 13.3 µM; in [3], 3.3 µM; in assay [4], 3.6 µM; in assay [5], 2.81 µM; in assay [6], 5.03 µM. Besides, the GI50 in assay [7] was 2.2 µM; in assay [8], 3.73 µM; in assay [9], 4.61 µM; in assay [10], 3.63 µM. Further, the TGI in assay [1] is 12.6 µM; in assay [2], 29.4 µM; in assay [3], 13.2 µM; in assay [4], 13.6 µM; in assay [5] it was 9.95 µM; in assay [6], 22.1 µM. Besides, the TGI in [7] is 4.98 µM; in [8], 23.7 µM; in [9], 18.9 µM; in assay [10] it was 18.4 µM.
On to `NC(=O)CSc1nc2ccccc2c(=O)n1N`, for which the TGI in [1], in assay [2], in assay [3], in assay [4], in assay [5] and in assay [6] was > 100 µM in each case. Further, the TGI in [7], in assay [8], in [9] and in assay [10] was > 100 µM in each case.
With `CC1(C)C(=O)/C(=C/c2ccccc2)C(C)(C)C1(C)C`, the TGI in [1], in [2], in assay [3], in assay [4], in [5] and in assay [6] was > 100 µM throughout. In addition, the TGI in [7], in assay [8], in [9] and in [10] was > 100 µM each time.
For the molecule `O=C(Nc1cccc2ccccc12)c1cc2ccccc2oc1=O`, the TGI in assay [1] is > 100 µM; in [2] it was 54.4 µM; in [3] it was > 100 µM; in assay [4], > 100 µM; in assay [5], > 100 µM; in assay [6], > 100 µM. For the same molecule, the TGI in assay [7], in assay [8], in assay [9] and in assay [10] was > 100 µM each time.
As to `Cc1cc(NC(=O)NC(=O)c2ccccc2NC(=O)CN(C)C)ccc1Oc1ncc(Br)cn1`, the TGI in [1] was 37.2 µM; in [2], > 92.7 µM; in assay [3], > 100 µM; in assay [4], > 57.4 µM; in assay [5], > 100 µM; in assay [6], 6.05 µM. Further, the TGI in assay [7] is > 85.1 µM; in assay [8] it was > 100 µM; in assay [9], > 100 µM; in assay [10], 65.9 µM.
